Results published in patent US11492375B2, “Cyclic peptide immunomodulators” (Bristol-Myers Squibb Company, priority 2017, dated 2022).

biological target: PD-1-Ig binding to PD-L1-TVMV-His (PD-L1-His) (Homo sapiens (Human), UniProt Q9NZQ7); assay: PD-1/PD-L1 Homogenous Time-Resolved Fluorescence (HTRF) binding assay; conditions: PD-1-Ig/PD-L1-His binding; numeric value; read-out: HTRF IC50 (μM) or Range
From the text: The ability of the macrocyclic peptides of the present disclosure to bind to PD-L1 was investigated using a PD-1/PD-L1 Homogenous Time-Resolved Fluorescence (HTRF) binding assay.
Homogenous Time-Resolved Fluorescence (HTRF) Assays of Binding of Soluble PD-1 to Soluble PD-L1. Soluble PD-1 and soluble PD-L1 refers to proteins with carboxyl-end truncations that remove the transmembrane-spanning regions and are fused to heterologous sequences, specifically the Fc portion of the human immunoglobuling G sequence (Ig) or the hexahistidine epitope tag (His). All binding studies were performed in an HTRF assay buffer consisting of dPBS supplemented with 0.1% (w/v) bovine serum albumin and 0.05% (v/v) Tween-20. For the PD-1-Ig/PD-L1-His binding assay, inhibitors were pre-incubated with PD-L1-His (10 nM final) for 15m in 4 μl of assay buffer, followed by addition of PD-1-Ig (20 nM final) in 1 μl of assay buffer and further incubation for 15 m. PD-L1 fusion proteins from either human, cynomologous macaques, mouse, or other species were used. HTRF detection was achieved using europium crypate-labeled anti-Ig monoclonal antibody (1 nM final) and allophycocyanin (APC) labeled anti-His monoclonal antibody (20 nM final). Antibodies were diluted in HTRF detection buffer and 5 μl was dispensed on top of binding reaction. The reaction was allowed to equilibrate for 30 minutes and signal (665 nm/620 nm ratio) was obtained using an EnVision fluorometer. Additional binding assays were established between PD-1-Ig/PD-L2-His (20 and 5 nM, respectively), CD8O-His/PD-L1-Ig (100 and 10 nM, respectively) and CD80-His/CTLA4-Ig (10 and 5 nM, respectively). Binding/competition studies between biotinylated Compound No. 71 and human PD-L1-His were performed as follows. Macrocyclic peptide inhibitors were pre-incubated with PD-L1-His (10 nM final) for 60 minutes in 4 μl of assay buffer followed by addition of biotinylated Compound No. 71 (0.5 nM final) in 1 μl of assay buffer. Binding was allowed to equilibrate for 30 minutes followed by addition of europium crypated labeled Streptavidin (2.5 pM final) and APC-labeled anti-His (20 nM final) in 5 μl of HTRF buffer. The reaction was allowed to equilibrate for 30 m and signal (665 nm/620 nm ratio) was obtained using an EnVision fluorometer.
Recombinant Proteins. Carboxyl-truncated human PD-1 (amino acids 25-167) with a C-terminal human Ig epitope tag [hPD-1 (25-167)-35-IG] and human PD-L1 (amino acids 18-239) with a C-terminal His epitope tag [hPD-L1(19-239)-tobacco vein mottling virus protease cleavage site (TVMV)-His] were expressed in HEK293T cells and purified sequentially by recombinant Protein A affinity chromatography and size exclusion chromatography. Human PD-L2-His (Sino Biologicals), CD80-His (Sino Biologicals), CTLA4-Ig (RnD Systems) were all obtained through commercial sources.

PD-1-Ig binding to PD-L1-TVMV-His (PD-L1-His), sequence (Q9NZQ7 other isoform, or with tags, fused parts or gaps): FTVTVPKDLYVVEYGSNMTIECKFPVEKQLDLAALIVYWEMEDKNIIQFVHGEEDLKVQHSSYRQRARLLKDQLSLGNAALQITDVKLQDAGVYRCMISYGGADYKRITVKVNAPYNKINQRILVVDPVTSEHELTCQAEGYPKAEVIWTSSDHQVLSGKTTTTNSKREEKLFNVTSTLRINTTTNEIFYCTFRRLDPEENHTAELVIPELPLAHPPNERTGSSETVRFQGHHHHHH

IC50 [µM] | SMILES
0.011 | C[C@@H]1NC(=O)[C@@H]2CCCC/C=C\CCCC[C@@H](C(=O)N2C)N(C)C(=O)[C@H](Cc2c[nH]c3ccccc23)NC(=O)[C@H](CO)NC(=O)[C@H](Cc2c[nH]c3ccccc23)NC(=O)[C@@H]2C[C@@H](O)CN2C(=O)[C@H](CCC(N)=O)NC(=O)[C@H](Cc2cnc[nH]2)NC(=O)[C@@H]2CCCN2C(=O)[C@H](CC(=O)O)NC(=O)[C@@H]2CNCCN2C(=O)[C@H](Cc2ccc(O)cc2)NC(=O)CSC[C@@H](C(=O)NCC(N)=O)NC1=O [Example 1115]
0.004 | C[C@@H]1NC(=O)[C@@H]2CCCC/C=C\CCCC[C@@H](C(=O)N2C)N(C)C(=O)[C@H](Cc2c[nH]c3ccccc23)NC(=O)[C@H](CO)NC(=O)[C@H](Cc2c[nH]c3ccccc23)NC(=O)[C@@H]2C[C@@H](O)CN2C(=O)[C@H](CCC(N)=O)NC(=O)[C@H](Cc2cnc[nH]2)NC(=O)[C@@H]2CCCN2C(=O)[C@H](CC(=O)O)NC(=O)[C@@H]2CCCCN2C(=O)[C@H](Cc2ccc(O)cc2)NC(=O)CSC[C@@H](C(=O)NCC(N)=O)NC1=O [Example 1120]

same assay, conditions: PD-1-Ig/PD-L1-His binding; value given as range class; read-out: HTRF IC50 (μM) or Range

IC50 [µM] | SMILES
0.002 to 0.0099 | C[C@@H]1NC(=O)[C@@H]2CCCC/C=C\CCCC[C@@H](C(=O)N2C)N(C)C(=O)[C@H](Cc2c[nH]c3ccccc23)NC(=O)[C@H](CO)NC(=O)[C@H](Cc2c[nH]c3ccccc23)NC(=O)[C@@H]2C[C@@H](O)CN2C(=O)[C@H](CCC(N)=O)NC(=O)[C@H](Cc2cnc[nH]2)NC(=O)[C@@H]2CCCN2C(=O)[C@H](CC(=O)O)NC(=O)[C@H](C)N(C)C(=O)[C@H](Cc2ccc(O)cc2)NC(=O)CSC[C@@H](C(=O)NCC(N)=O)NC1=O [Example 1113]
0.01 to 0.099 | C[C@H]1C(=O)N[C@@H](CC(=O)O)C(=O)N2CCC[C@H]2C(=O)N[C@@H](CN)C(=O)N[C@@H](CCC(=O)O)C(=O)N2C[C@H](O)C[C@H]2C(=O)N[C@@H](Cc2c[nH]c3ccccc23)C(=O)N[C@@H](CO)C(=O)N[C@@H](Cc2c[nH]c3ccccc23)C(=O)N(C)[C@H]2CCC/C=C\CCCC[C@@H](C(=O)N[C@@H](CCC(=O)O)C(=O)N[C@H](C(=O)NCC(N)=O)CSCC(=O)N[C@@H](Cc3ccc(O)cc3)C(=O)N1C)N(C)C2=O [Example 1116]
0.002 to 0.0099 | C[C@H]1C(=O)N[C@@H](CC(=O)O)C(=O)N2CCC[C@H]2C(=O)N[C@@H](CN)C(=O)N[C@@H](CCC(=O)O)C(=O)N2C[C@H](O)C[C@H]2C(=O)N[C@@H](Cc2c[nH]c3ccccc23)C(=O)N[C@@H](CO)C(=O)N[C@@H](Cc2cn(CC(=O)O)c3ccccc23)C(=O)N(C)[C@H]2CCCC/C=C\CCCC[C@@H](C(=O)N[C@@H](CCC(=O)O)C(=O)N[C@H](C(=O)NCC(N)=O)CSCC(=O)N[C@@H](Cc3ccc(O)cc3)C(=O)N1C)N(C)C2=O [Example 1117]
0.002 to 0.0099 | C[C@H]1C(=O)N[C@@H](CC(=O)O)C(=O)N2CCC[C@H]2C(=O)N[C@@H](CN)C(=O)N[C@@H](CCC(=O)O)C(=O)N2C[C@H](O)C[C@H]2C(=O)N[C@@H](Cc2c[nH]c3ccccc23)C(=O)N[C@@H](CO)C(=O)N[C@@H](Cc2csc3ccccc23)C(=O)N(C)[C@H]2CCCC/C=C\CCCC[C@@H](C(=O)N[C@@H](CN)C(=O)N[C@H](C(=O)NCC(N)=O)CSCC(=O)N[C@@H](Cc3ccc(O)cc3)C(=O)N1C)N(C)C2=O [Example 1118]
0.002 to 0.0099 | CN1C(=O)[C@H](Cc2csc3ccccc23)NC(=O)[C@H](CO)NC(=O)[C@H](Cc2c[nH]c3ccccc23)NC(=O)[C@@H]2C[C@@H](O)CN2C(=O)[C@H](CCC(N)=O)NC(=O)[C@H](CN)NC(=O)[C@@H]2CCCN2C(=O)[C@H](CC(=O)O)NC(=O)[C@@H]2CCCCN2C(=O)[C@H](Cc2ccc(O)cc2)NC(=O)CSC[C@@H](C(=O)NCC(N)=O)NC(=O)[C@H](CN)NC(=O)[C@@H]2CCCC/C=C\CCCC[C@H]1C(=O)N2C [Example 1119]
0.01 to 0.099 | CN1C(=O)[C@H](Cc2cn(CC(=O)O)c3ccccc23)NC(=O)[C@H](CCN)NC(=O)[C@H](Cc2c[nH]c3ccccc23)NC(=O)[C@@H]2C[C@@H](O)CN2C(=O)[C@H](CCC(=O)O)NC(=O)[C@H](CN)NC(=O)[C@@H]2CCCN2C(=O)[C@H](CC(=O)O)NC(=O)[C@H]2CCCCN2C(=O)[C@H](Cc2ccc(O)cc2)NC(=O)CSC[C@@H](C(=O)NCC(N)=O)NC(=O)[C@H](CCC(=O)O)NC(=O)[C@@H]2Cc3ccc(cc3)OCC=CCCC[C@H]1C(=O)N2C [Example 1121]
0.002 to 0.0099 | C[C@H]1C(=O)N[C@@H](CC(=O)O)C(=O)N2CCC[C@H]2C(=O)N[C@@H](CN)C(=O)N[C@@H](CCC(=O)O)C(=O)N2C[C@H](O)C[C@H]2C(=O)N[C@@H](Cc2c[nH]c3ccccc23)C(=O)N[C@@H](CCN)C(=O)N[C@@H](Cc2cn(CC(=O)O)c3ccccc23)C(=O)N(C)C2CCCCC/C=C\CCCC[C@@H](C(=O)N[C@@H](CCC(=O)O)C(=O)N[C@H](C(=O)NCC(N)=O)CSCC(=O)N[C@@H](Cc3ccc(O)cc3)C(=O)N1C)N(C)C2=O [Example 1122]

test system: not given; assay: not given; conditions: oral formulation ENTOCORT EC, extensive first-pass metabolism; cited from earlier work

SMILES | bioavailability
CCCC1O[C@@H]2C[C@H]3[C@@H]4CCC5=CC(=O)C=C[C@]5(C)[C@H]4[C@@H](O)C[C@]3(C)[C@]2(C(=O)CO)O1 (stereo partly shown) [budesonide] | about 10%
